Where two headings read alike, the source gives them in different places. Non-standard residues stand in square brackets, D forms with d. Residues, ends and D or L forms follow the SMILES beside them. Tle = CC(C)(C)[C@H](N)C(=O)O; Dab = NCC[C@H](N)C(=O)O; Aib = CC(C)(N)C(=O)O
Experiments:
[1] = test system: human whole blood; test: hemolysis risk test in human whole blood; assay type: cell-based; conditions: for Hemolysis rate (%): Human, 37 °C 1 h
Experimental: This test example assessed whether a polypeptide compound causes hemolytic reactions in rat, rabbit, and human whole blood.
Preparation of red blood cell suspension: 100 µL of fresh whole blood was collected, and 900 µL of 1× PBS solution was then added. The mixture was shaken on a plate shaker at 30 rpm for 5 min and then centrifuged at 1000 g for 5 min, and the supernatant was discarded. The above washing step was repeated until the supernatant no longer appeared red. The suspension was set aside for later use.
Preparation of test polypeptide solutions: An appropriate amount of 1× PBS solution was added to a powdered polypeptide, and the polypeptide was dissolved to form a standard stock solution. […] Meanwhile, blank 1× PBS was used as a negative control, and a 1× PBS solution containing 0.1% Triton X-100 was used as a positive control.
Incubation: A test solution (500 µL) was added to the red blood cell suspension, and then the mixture was well shaken on a plate shaker at 30 rpm for 5 min, incubated at 37 °C for 1 h, and centrifuged at 1000 g for 5 min.
100 µL of the supernatant was transferred to a single well of a microplate. The absorbance at 540 nm was measured using a SpectraMax M5 microplate reader, and data analysis was performed using GraphPad Prism 9. The hemolysis rate (%) was calculated using the formula: (test sample absorbance - negative control absorbance) / (positive control absorbance - negative control absorbance) × 100%. A rate of less than 5% indicates the absence of hemolysis, while a rate of greater than 5% indicates the presence of hemolysis. Table 3. Testing of the hemolysis risk of the polypeptide compound

[2] = test system: histamine release; test: ability to induce histamine release in rats (plasma); assay type: in vivo, SD rats; parameters: Histamine levels (sums of detected histamine and 3-methylhistamine): unit not given here; conditions: for Histamine levels (sums of detected histamine and 3-methylhistamine): rat plasma
Experimental: With male SD rats as test animals, the ability of a polypeptide compound administered via single intravenous bolus injection to induce histamine release in rats (plasma) was studied.
This test was performed synchronously with Test Examples 3.6, with three animals per group and blood collection time points set as follows: before administration, and 2 min, 8 min, and 15 min after the end of intravenous bolus injection.
The histamine and 3-methylhistamine levels at each time point were determined by LC-MS/MS. LC-MS detection of compounds: (1) Chromatographic conditions: mobile phase A: acetonitrile/water/100 mM ammonium acetate, 50/45/5 (v/v/v), 2% FA; mobile phase B: acetonitrile/100 mM ammonium acetate, 95/5 (v/v), 2% FA; flow rate: 0.4 mL/min; chromatography column: Waters BEH HILIC 1.7 µm, 2.1 × 150 mm; column temperature: 50 °C; injection volume: 20 µL. (2) Mass-spectrometric conditions: The mass spectrometry analysis used an electrospray ionization (ESI) source, a positive ion analysis mode, and a multi-reaction monitoring (MRM) scan mode.
Sample pretreatment: A 30 µL plasma sample was taken and added to 200 µL of an acetonitrile solution containing tetradeuterated histamine (D4-histamine, 100 ng/mL). The mixture was vortexed for 1 min and then centrifuged at 5800 rpm for 10 min, and 100 µL of the supernatant was transferred to a sample tray and injected into an instrument for analysis. […] Table 7. Histamine levels at different time points

[3] = pharmacokinetic study in beagle dogs, single intravenous infusion; assay type: in vivo
Experimental: With standard beagle dogs as test animals, the pharmacokinetic behavior of a polypeptide compound administered via single intravenous infusion in beagle dogs (plasma) was studied.
For polypeptide compound 22, two dose groups were set: 1.2 nmol/g and 0.4 nmol/g. For NA-1, one dose group was set: 1.2 nmol/g. Each group consisted of four animals, with an equal number of males and females. The polypeptide compound was dissolved in 1× PBS, and the polypeptide compound solution was then administered via intravenous infusion over 10 min. The blood collection time points were as follows: before infusion (0 h), 5 min after the start of bolus injection, and 0 min, 2 min, 5 min, 10 min, 15 min, 30 min, 1 h, 2 h, 4 h, 8 h, and 24 h after the end of bolus injection. At each time point, 0.5 mL of blood was collected and transferred to an EDTA-K2 anticoagulation centrifuge tube. Meanwhile, 50 µL of a protease inhibitor was added. After thorough mixing, the mixture was centrifuged at 2000 g for 10 min (4 °C), and the plasma was separated within 1 h, aliquoted into cryopreservation tubes, and stored at -60 to -90 °C. The blood collection-to-centrifugation process was performed under ice bath conditions.
The plasma concentrations of the test compounds were determined using the method in Test Example 3.4.3. Plasma concentration-time curves were plotted, and the pharmacokinetic parameters were calculated using PKSolver software.

[4] = test system: histamine release; test: ability to induce histamine release in beagle dogs (plasma); assay type: in vivo; parameters: Histamine levels (sums of detected histamine and 3-methylhistamine): unit not given here; conditions: for Histamine levels (sums of detected histamine and 3-methylhistamine): beagle dog plasma
Experimental: With beagle dogs as test animals, the ability of a polypeptide compound administered via single intravenous infusion to induce histamine release in dogs (plasma) was studied.
This test was performed synchronously with Test Examples 3.9, with four animals per group and blood collection time points set as follows: before administration (0 h), and 2 min, 5 min, and 15 min after the end of intravenous infusion.
Sample analysis and data processing were performed with reference to the methods in 3.7.3. Table 10. Histamine levels at different time points

[5] = beagle dogs, intravenous infusion over 10 min, 0.4 nmol/g, Male
[6] = beagle dogs, intravenous infusion over 10 min, 1.2 nmol/g, Female
[7] = beagle dogs, intravenous infusion over 10 min, 1.2 nmol/g, Male
[8] = dog, plasma, beagle dogs, intravenous infusion over 10 min, 0.4 nmol/g, Female
[9] = dog, plasma, beagle dogs, intravenous infusion over 10 min, 0.4 nmol/g, Male
[10] = dog, plasma, beagle dogs, intravenous infusion over 10 min, 1.2 nmol/g, Female
[11] = dog, plasma, beagle dogs, intravenous infusion over 10 min, 1.2 nmol/g, Male

CC(C)[C@H](NC(=O)[C@H](CC(=O)O)NC(=O)[C@@H](NC(=O)[C@@H](NC(=O)[C@@H](NC(=O)[C@@H](NC(=O)[C@H](CCN)NC(=O)C(C)(C)NC(=O)CNC(=O)[C@@H](CCCNC(=N)N)NC(=O)[C@@H](CCCNC(=N)N)NC(=O)[C@@H](CCCNC(=N)N)NC(=O)[C@@H](CCC(N)=O)NC(=O)[C@@H](CCCNC(=N)N)NC(=O)[C@@H](CCCNC(=N)N)NC(=O)[C@@H](CCCCN)NC(=O)[C@@H](CCCCN)NC(=O)[C@@H](CCCNC(=N)N)NC(=O)CNC(=O)[C@H](N)Cc1ccc(O)cc1)[C@@H](C)O)C(C)(C)C)C(C)(C)C)[C@@H](C)O)C(=O)O [Polypeptide compound 14, y-G-r-k-k-r-r-q-r-r-r-G-Aib-Dab-T-Tle-Tle-T-D-V] (H-[dY]G[dR][dK][dK][dR][dR][dQ][dR][dR][dR]G[Aib][Dab]T[Tle][Tle]TDV-OH)
Hemolysis rate (%) ([1]; 1.0 µM): 0.09%
Hemolysis rate (%) ([1]; 2.5 µM): 0.38%
Hemolysis rate (%) ([1]; 5.0 µM): 0.15%
Hemolysis rate (%) ([1]; 10 µM): 0.31%
Hemolysis rate (%) ([1]; 25 µM): 0.08%
Hemolysis rate (%) ([1]; 50 µM): 0.53%
hemolysis rates ([1]; human whole blood, concentration range of 1 to 50 µM): less than 5%
Histamine levels (sums of detected histamine and 3-methylhistamine) ([2]; 0.3 nmol/g, 0 min (before administration)): 34.1±21.7
Histamine levels (sums of detected histamine and 3-methylhistamine) ([2]; 0.3 nmol/g, 2 min after the end of intravenous bolus injection): 18.2±5.2
Histamine levels (sums of detected histamine and 3-methylhistamine) ([2]; 0.3 nmol/g, 8 min after the end of intravenous bolus injection): 38.7±16.8
Histamine levels (sums of detected histamine and 3-methylhistamine) ([2]; 0.3 nmol/g, 15 min after the end of intravenous bolus injection): 45.3±3.3
Histamine levels (sums of detected histamine and 3-methylhistamine) ([2]; 1 nmol/g, 0 min (before administration)): 45.5±14.4
Histamine levels (sums of detected histamine and 3-methylhistamine) ([2]; 1 nmol/g, 2 min after the end of intravenous bolus injection): 41.9±23.3
Histamine levels (sums of detected histamine and 3-methylhistamine) ([2]; 1 nmol/g, 8 min after the end of intravenous bolus injection): 59.4±53.5
Histamine levels (sums of detected histamine and 3-methylhistamine) ([2]; 1 nmol/g, 15 min after the end of intravenous bolus injection): 71.4±38.7
Histamine levels (sums of detected histamine and 3-methylhistamine) ([2]; 3 nmol/g, 0 min (before administration)): 50.2±28.7
Histamine levels (sums of detected histamine and 3-methylhistamine) ([2]; 3 nmol/g, 2 min after the end of intravenous bolus injection): 754.7±448.6
Histamine levels (sums of detected histamine and 3-methylhistamine) ([2]; 3 nmol/g, 8 min after the end of intravenous bolus injection): 558.0±405.6
Histamine levels (sums of detected histamine and 3-methylhistamine) ([2]; 3 nmol/g, 15 min after the end of intravenous bolus injection): 265.3±145.7
increase in histamine levels ([2]; rats, medium (1 nmol/g) or low (0.3 nmol/g) dose, within 15 min): no significant increase in histamine levels
peak histamine release relative to NA-1 ([2]; rats, same high dose (3 nmol/g), 2 min): nearly twice that of NA-1

CC(C)[C@H](NC(=O)[C@H](CC(=O)O)NC(=O)[C@@H](NC(=O)[C@@H](NC(=O)[C@@H](NC(=O)[C@@H](NC(=O)[C@H](CCN)NC(=O)C(C)(C)NC(=O)CNC(=O)[C@@H](CCCNC(=N)N)NC(=O)[C@H](CCCNC(=N)N)NC(=O)[C@H](CCCNC(=N)N)NC(=O)[C@H](CCC(N)=O)NC(=O)[C@@H](CCCNC(=N)N)NC(=O)[C@H](CCCNC(=N)N)NC(=O)[C@H](CCCCN)NC(=O)[C@H](CCCCN)NC(=O)[C@H](N)CCCNC(=N)N)[C@@H](C)O)C(C)(C)C)C(C)(C)C)[C@@H](C)O)C(=O)O [Polypeptide compound 22, r-K-K-R-r-Q-R-R-r-G-Aib-Dab-T-Tle-Tle-T-D-V] (H-[dR]KKR[dR]QRR[dR]G[Aib][Dab]T[Tle][Tle]TDV-OH)
AUClast/dose ([3]; beagle dogs, intravenous infusion over 10 min, 0.4 nmol/g, Female): 5730
AUClast/dose [3, 5]: 4513
Tmax [3, 5]: 0.17 h
AUClast/dose [3, 6]: 6558
T1/2 [3, 6]: 4.25 h
AUClast/dose [3, 7]: 8183
T1/2 [3, 7]: 5.90 h
Tmax [3, 7]: 0.18 h
half-life ([3]; both sexes, beagle, dog, in vivo, iv, dogs, same dose (1.2 nmol/g), read-out: average T1/2 (converted)): 5.1 h
AUC(0-inf) [3, 8]: 5890 ng·h/mL
Cmax [3, 8]: 3930 ng/mL
MRT [3, 8]: 3.66 h
half-life ([3]; dog, plasma, beagle dogs, intravenous infusion over 10 min, 0.4 nmol/g, Female, read-out: T1/2 (converted)): 2.84 h
Tmax ([3]; dog, plasma, beagle dogs, intravenous infusion over 10 min, 0.4 nmol/g, Female, read-out: Tmax): 0.17 h
AUC(0-inf) [3, 9]: 5170 ng·h/mL
Cmax [3, 9]: 2320 ng/mL
MRT [3, 9]: 4.61 h
half-life ([3]; dog, plasma, beagle dogs, intravenous infusion over 10 min, 0.4 nmol/g, Male, read-out: T1/2 (converted)): 3.36 h
AUC(0-inf) [3, 10]: 18000 ng·h/mL
Cmax [3, 10]: 8130 ng/mL
MRT [3, 10]: 4.91 h
Tmax ([3]; dog, plasma, beagle dogs, intravenous infusion over 10 min, 1.2 nmol/g, Female, read-out: Tmax): 0.18 h
AUC(0-inf) [3, 11]: 23500 ng·h/mL
Cmax [3, 11]: 7680 ng/mL
MRT [3, 11]: 7.03 h
average AUC, times that of NA-1 ([3]; dogs, same dose (1.2 nmol/g)): 21.3 times
average Cmax, times that of NA-1 ([3]; dogs, same dose (1.2 nmol/g)): 1.3 times
Histamine levels (sums of detected histamine and 3-methylhistamine) ([4]; 0.4 nmol/g, 0 min (before administration)): 6.28±5.01
Histamine levels (sums of detected histamine and 3-methylhistamine) ([4]; 0.4 nmol/g, 2 min after the end of intravenous infusion): 9.45±7.38
Histamine levels (sums of detected histamine and 3-methylhistamine) ([4]; 0.4 nmol/g, 5 min after the end of intravenous infusion): 11.70±8.39
Histamine levels (sums of detected histamine and 3-methylhistamine) ([4]; 0.4 nmol/g, 15 min after the end of intravenous infusion): 7.97±2.75
Histamine levels (sums of detected histamine and 3-methylhistamine) ([4]; 1.2 nmol/g, 0 min (before administration)): 7.06±4.14
Histamine levels (sums of detected histamine and 3-methylhistamine) ([4]; 1.2 nmol/g, 2 min after the end of intravenous infusion): 12.71±10.47
Histamine levels (sums of detected histamine and 3-methylhistamine) ([4]; 1.2 nmol/g, 5 min after the end of intravenous infusion): 6.24±1.78
Histamine levels (sums of detected histamine and 3-methylhistamine) ([4]; 1.2 nmol/g, 15 min after the end of intravenous infusion): 5.81±1.44
changes in histamine levels compared to before administration ([4]; beagle dogs, both doses (0.4 and 1.2 nmol/g)): no significant changes in histamine levels

Reference: patent publication EP4650362A1, “NEUROPROTECTIVE PSD-95 POLYPEPTIDE INHIBITOR AND USE THEREOF” (Beijing Tuo Jie Biopharmaceutical Co. Ltd., priority 2023, dated 2024)
